From ChEMBL document CHEMBL1201862, “PubChem BioAssay data set” (2004)
Active and inactive are the calls of the source.

Key:
Caspase-6 = target: T1, Caspase-6 (Homo sapiens, UniProt P55212); experiment: human caspase-6 inhibitors, dose response, biochemical, VEID-R110 fluorescence, cherry-pick (AID 720632)
T1 sequence (P55212 whole entry): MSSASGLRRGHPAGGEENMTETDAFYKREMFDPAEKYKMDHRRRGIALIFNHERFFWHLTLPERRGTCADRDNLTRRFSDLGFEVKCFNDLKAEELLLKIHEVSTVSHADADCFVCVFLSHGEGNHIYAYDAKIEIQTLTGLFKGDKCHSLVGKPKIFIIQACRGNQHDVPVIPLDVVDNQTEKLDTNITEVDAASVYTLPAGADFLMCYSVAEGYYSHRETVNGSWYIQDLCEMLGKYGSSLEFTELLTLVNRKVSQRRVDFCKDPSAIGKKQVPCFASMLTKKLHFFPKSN

[1] = target: T2, Histone-lysine N-methyltransferase NSD2 (Homo sapiens, UniProt O96028); format: biochemical
T2 sequence (O96028 whole entry): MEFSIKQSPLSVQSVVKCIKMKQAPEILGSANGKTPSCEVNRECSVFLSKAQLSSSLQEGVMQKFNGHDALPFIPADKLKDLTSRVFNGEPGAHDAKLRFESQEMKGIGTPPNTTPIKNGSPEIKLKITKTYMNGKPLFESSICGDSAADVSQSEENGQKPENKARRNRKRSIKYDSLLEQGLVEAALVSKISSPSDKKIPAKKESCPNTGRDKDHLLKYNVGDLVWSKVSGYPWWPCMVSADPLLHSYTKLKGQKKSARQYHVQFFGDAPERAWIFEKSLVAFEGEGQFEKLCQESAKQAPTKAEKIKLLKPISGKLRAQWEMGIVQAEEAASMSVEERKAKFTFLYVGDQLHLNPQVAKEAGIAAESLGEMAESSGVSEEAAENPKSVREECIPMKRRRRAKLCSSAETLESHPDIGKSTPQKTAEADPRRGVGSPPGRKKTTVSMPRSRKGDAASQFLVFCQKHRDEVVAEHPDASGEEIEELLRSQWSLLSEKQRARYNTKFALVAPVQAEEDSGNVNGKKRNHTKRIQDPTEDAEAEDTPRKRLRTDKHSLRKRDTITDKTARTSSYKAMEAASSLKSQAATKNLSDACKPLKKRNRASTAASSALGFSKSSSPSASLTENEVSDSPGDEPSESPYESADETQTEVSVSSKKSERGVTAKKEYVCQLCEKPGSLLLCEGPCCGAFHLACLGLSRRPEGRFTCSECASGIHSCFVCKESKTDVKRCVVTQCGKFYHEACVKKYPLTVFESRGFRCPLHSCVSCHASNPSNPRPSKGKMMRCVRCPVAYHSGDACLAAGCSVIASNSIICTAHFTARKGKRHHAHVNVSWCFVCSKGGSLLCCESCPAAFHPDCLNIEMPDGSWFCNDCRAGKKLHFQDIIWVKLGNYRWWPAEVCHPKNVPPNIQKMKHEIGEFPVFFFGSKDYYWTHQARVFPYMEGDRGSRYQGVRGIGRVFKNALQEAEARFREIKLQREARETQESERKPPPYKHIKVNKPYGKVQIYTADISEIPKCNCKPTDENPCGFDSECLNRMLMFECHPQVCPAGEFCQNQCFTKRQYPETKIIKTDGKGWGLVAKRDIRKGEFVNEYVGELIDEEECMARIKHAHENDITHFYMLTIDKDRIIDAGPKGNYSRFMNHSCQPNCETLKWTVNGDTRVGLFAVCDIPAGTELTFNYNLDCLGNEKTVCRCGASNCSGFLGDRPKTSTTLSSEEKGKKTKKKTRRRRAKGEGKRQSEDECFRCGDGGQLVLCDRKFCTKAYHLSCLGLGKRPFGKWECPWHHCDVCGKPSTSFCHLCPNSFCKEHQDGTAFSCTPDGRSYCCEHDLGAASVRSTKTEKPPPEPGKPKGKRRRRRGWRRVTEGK

[2] = target: T3, Zinc finger protein mex-5 (Caenorhabditis elegans, UniProt Q9XUB2); experiment: MEX-5/TCR-2 RNA interaction inhibitors, dose response, biochemical, C. elegans, fluorescence polarization (AID 1960)
T3 sequence (Q9XUB2 whole entry): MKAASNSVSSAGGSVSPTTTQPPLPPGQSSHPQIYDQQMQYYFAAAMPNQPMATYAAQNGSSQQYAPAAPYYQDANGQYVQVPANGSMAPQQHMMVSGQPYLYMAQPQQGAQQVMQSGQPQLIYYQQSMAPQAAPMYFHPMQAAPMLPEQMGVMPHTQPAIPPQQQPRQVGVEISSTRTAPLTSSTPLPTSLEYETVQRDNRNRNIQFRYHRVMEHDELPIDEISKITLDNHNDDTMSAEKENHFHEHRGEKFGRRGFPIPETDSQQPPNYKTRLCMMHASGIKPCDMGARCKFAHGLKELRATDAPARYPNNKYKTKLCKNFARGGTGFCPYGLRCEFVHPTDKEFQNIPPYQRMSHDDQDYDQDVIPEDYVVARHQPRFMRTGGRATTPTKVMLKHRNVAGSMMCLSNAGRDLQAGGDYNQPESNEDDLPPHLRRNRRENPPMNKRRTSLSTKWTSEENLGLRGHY

Caspase-7 = Caspase-7 (Homo sapiens, UniProt P55210); experiment: human caspase-7 inhibitors, dose response, selectivity assay for caspase-6 inhibitor project, biochemical, DEVD-R110 fluorescence, cherry-pick (AID 743295)
Caspase-7, sequence (P55210 24-198 limits assumed): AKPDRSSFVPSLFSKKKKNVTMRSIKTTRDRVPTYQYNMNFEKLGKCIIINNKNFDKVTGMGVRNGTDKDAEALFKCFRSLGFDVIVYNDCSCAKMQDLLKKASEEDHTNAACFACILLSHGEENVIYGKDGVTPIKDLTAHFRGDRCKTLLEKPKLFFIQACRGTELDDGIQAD
Caspase-7, sequence (P55210 207-303 limits assumed): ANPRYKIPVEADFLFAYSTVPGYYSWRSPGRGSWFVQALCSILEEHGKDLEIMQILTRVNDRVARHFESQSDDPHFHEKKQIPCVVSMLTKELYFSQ

[3] = target: T4, Carboxy-terminal domain RNA polymerase II polypeptide A small phosphatase 1 (Homo sapiens, UniProt Q9GZU7); experiment: inhibitors of CTDSP1, concentration-response testing, biochemical assay, absorbance-based, actives from ultra-high-throughput screening (AID 540297); format: functional
T4 sequence (Q9GZU7 whole entry): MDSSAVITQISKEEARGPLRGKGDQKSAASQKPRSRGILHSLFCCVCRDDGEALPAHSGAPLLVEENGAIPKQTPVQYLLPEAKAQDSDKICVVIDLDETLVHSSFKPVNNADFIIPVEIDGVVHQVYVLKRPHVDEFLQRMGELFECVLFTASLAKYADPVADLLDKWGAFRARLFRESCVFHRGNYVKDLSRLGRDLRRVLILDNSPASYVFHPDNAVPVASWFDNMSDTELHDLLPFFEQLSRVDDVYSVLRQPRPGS

Caspase-3 = target: T5, Caspase-3 (Homo sapiens, UniProt P42574); experiment: caspase-3 enzyme inhibitors, selectivity check, dose response, selectivity assay for caspase-6 allosteric inhibitor project, biochemical, fluorescence, cherry-picked samples (AID 743291)
T5 sequence (P42574 whole entry): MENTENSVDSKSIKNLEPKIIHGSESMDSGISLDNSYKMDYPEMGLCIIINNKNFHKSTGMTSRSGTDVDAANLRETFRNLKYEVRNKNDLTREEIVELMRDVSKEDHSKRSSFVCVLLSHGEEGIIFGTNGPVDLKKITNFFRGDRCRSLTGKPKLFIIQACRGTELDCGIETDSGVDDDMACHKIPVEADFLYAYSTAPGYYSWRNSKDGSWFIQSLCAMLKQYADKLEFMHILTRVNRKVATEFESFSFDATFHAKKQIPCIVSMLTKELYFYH

[4] = target: T6, RNA-binding protein pos-1 (Caenorhabditis elegans, UniProt G5EF15); experiment: inhibitors of POS-1/mex-3 RNA binding, dose response, biochemical, fluorescence polarization (AID 1964);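 further: purified POS-1 fused to maltose binding protein made in E. coli; potency of compounds blocking POS-1 binding to fluorescent RNA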
T6 sequence (G5EF15 whole entry): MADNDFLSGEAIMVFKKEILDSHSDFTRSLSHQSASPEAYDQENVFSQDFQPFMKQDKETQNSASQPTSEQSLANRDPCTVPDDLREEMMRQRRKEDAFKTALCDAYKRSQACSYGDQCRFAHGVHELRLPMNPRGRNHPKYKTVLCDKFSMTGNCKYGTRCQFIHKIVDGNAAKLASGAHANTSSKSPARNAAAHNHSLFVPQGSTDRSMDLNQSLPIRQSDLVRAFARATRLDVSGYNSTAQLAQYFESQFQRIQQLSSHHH

cells = format: functional, cell-based; conditions: HEK-CNG
[5] = HepG2 cell cytotoxicity, dose response, cytotoxicity control for Shn3 inhibitor project, CellTiter-Glo, cherry-picked (AID 624134); format: functional, cell-based
Galanin receptor type 3 = Galanin receptor type 3 (Homo sapiens, UniProt O60755); experiment: Fluorescence-based cell-based primary high throughput dose response assay to identify antagonists of the Galanin Receptor 3 (GalR3).; format: functional
Galanin receptor type 3, sequence (O60755 whole entry, the tested form may be a part): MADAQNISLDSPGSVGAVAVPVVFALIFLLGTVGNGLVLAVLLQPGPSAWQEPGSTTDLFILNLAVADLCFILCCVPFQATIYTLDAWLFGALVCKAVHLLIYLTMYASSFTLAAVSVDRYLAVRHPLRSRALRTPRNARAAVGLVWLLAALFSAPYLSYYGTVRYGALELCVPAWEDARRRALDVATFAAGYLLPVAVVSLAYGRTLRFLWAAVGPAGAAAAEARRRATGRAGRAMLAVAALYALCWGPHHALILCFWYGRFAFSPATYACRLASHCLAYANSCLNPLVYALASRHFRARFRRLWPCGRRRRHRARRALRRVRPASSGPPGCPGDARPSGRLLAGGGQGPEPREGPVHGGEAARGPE

[6] = off-target signal loss in HeLa-CEM21 co-culture – HeLa F-luc CTL cells, cherry-picked, counter-screen for HIV-1 Env fusion inhibitor project, dose response (AID 652040); format: functional, cell-based;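 further: potency for signal decrease marking cytotoxic or nonspecific inhibition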
[7] = target: COUP transcription factor 2 (Homo sapiens, UniProt P24468); experiment: Luminescence-based cell-based high throughput dose response assay to identify inhibitors of COUP-TFII (NR2F2).; format: functional;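 further: HEK293 cells transiently cotransfected with COUP-TFII expression vector and reporter; luciferase reporter luminescence driven by COUP-TFII from the pX2-168 reporter plasmid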
COUP transcription factor 2, sequence (P24468 whole entry, the tested form may be a part): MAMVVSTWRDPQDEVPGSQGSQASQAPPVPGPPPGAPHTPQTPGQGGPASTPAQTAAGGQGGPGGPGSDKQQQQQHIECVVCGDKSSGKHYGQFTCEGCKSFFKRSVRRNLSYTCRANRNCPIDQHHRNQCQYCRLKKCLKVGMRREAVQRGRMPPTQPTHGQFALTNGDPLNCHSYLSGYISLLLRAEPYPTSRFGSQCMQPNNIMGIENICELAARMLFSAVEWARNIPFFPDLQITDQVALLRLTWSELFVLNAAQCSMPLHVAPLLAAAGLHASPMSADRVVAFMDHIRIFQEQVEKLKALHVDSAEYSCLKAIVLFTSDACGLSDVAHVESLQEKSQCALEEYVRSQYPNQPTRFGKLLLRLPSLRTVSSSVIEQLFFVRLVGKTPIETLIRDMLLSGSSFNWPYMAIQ

[8] = inhibitors of clade B AD8 Env fusion, dose response, cell-based, cherry-pick (AID 652062); format: functional;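 further: luciferase signal from cell-cell fusion driven by HIV-1 clade B AD8 Env; potency is for inhibitors of fusion seen as a drop in luminescence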
[9] = control 3'UTR Renilla luciferase suppression, dose response, counter-screen for Shn3 inhibitor project, cell-based, Clone20-Shn3RL, cherry-picked (AID 624133); format: functional
[10] = ZM109 Env clade C HIV-1 fusion inhibitors, dose response, HeLa effector, CEM target cells, luciferase, cherry-pick (AID 652058); format: functional, cell-based
[11] = inhibitors of HIV Env-driven cell fusion, dose response, cherry-pick (AID 652057); format: functional, cell-based
[12] = Shn3 3'UTR reporter inhibitors, dose response, cell-based, Clone20 osteoblasts, firefly luciferase, cherry-picked (AID 624132); format: functional;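 further: firefly luciferase luminescence from reporter carrying the Shn3 3'UTR in osteoblasts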
[13] = A549 cell cytotoxicity, dose response, cytotoxicity control, plate reader, cherry-pick, antagonist series (AID 743412); format: functional, cell-based
HEK293 [14] = experiment: inhibitors of LMP1-driven NF-kB reporter, dose response, cell-based, HEK293, luciferase, cherry-pick (AID 588343); format: functional; conditions: Homo sapiens
[15] = HEK293 cell cytotoxicity, dose response, cytotoxicity control, plate reader, cherry-picked samples (AID 743446); format: functional, cell-based
[16] = HepG2 cell cytotoxicity, dose response, cytotoxicity control, plate reader, cherry-pick, antagonist series (AID 743416); format: functional, cell-based
[17] = LGR2 antagonists, dose response, cell-based, HEK293, CRE-luciferase reporter, cherry pick, set 2 (AID 743343); format: functional;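 further: transfected cells were stimulated with diluted bursicon conditioned medium after compound addition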
[18] = MC4R antagonists, dose response, counter-screen for LGR2 antagonist project, cell-based, plate reader, cherry pick (AID 743444); format: functional;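 further: transfected HEK 293 cells stimulated with alpha-MSH peptide; potency of inhibitors of the alpha-MSH evoked signal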
Protein skinhead-1 = target: T7, Protein skinhead-1 (Caenorhabditis elegans, UniProt P34707); format: functional
T7 sequence (P34707 whole entry): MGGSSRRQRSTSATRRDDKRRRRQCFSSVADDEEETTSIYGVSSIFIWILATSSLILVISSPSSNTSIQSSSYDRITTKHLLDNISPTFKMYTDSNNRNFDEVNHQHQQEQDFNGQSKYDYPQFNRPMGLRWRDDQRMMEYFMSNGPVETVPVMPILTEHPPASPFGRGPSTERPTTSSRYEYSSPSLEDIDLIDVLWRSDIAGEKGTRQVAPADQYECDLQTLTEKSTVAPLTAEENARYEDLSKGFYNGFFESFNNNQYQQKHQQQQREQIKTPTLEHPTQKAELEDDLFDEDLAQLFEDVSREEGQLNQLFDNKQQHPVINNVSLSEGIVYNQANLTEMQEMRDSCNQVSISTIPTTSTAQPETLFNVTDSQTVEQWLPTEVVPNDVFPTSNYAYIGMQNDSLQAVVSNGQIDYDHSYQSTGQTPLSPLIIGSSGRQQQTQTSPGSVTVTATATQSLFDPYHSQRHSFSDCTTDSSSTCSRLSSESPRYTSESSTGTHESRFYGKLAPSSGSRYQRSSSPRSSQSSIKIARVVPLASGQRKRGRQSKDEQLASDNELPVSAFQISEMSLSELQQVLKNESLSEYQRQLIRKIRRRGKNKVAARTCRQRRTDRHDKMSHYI

[19] = inhibitors of control Renilla luciferase reporter, dose response, counter-screen for Shn3 3'UTR targeting project, Clone20-Shn3RL cells, dual-Glo, cherry-pick, set 2 (AID 720724); format: functional, cell-based; conditions: Dual-Go Shn3RL
[20] = reduction of Shn3 3'UTR firefly luciferase signal, dose response, Schnurri-3 inhibitor project, cell-based, Clone20 osteoblasts, cherry-pick, set 2 (AID 720490); format: functional;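 further: actives lower the luminescence signal as inhibitors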
Vero = experiment: cells; format: functional; conditions: Chlorocebus sabaeus
[21] = HEK293 Cytotoxicity Assay Measured in Cell-Based System Using Plate Reader - 7071-01_Inhibitor_Dose_CherryPick_Activity_Set2.; format: functional
HEK293 [22] = experiment: HEK293T cell cytotoxicity, dose response, cytotoxicity control, ATP luminescence, cherry-pick samples (AID 687005); format: functional, cell-based; conditions: Homo sapiens;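 further: cells exposed to compound for 48 hours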

## Cc1cc(C=O)c(C)n1-c1ccc(Cl)c(C(=O)O)c1
Caspase-6
  AC50: 1.47 µM (active)
[1]
  AC50: 10.6 µM (active)
[2]
  EC50: > 300 µM (not active)
Caspase-7
  AC50: > 70 µM (inactive)
[3]
  IC50: 4.61 µM (active)
Caspase-3
  AC50: 43.1 µM (active)
[4]
  EC50: > 300 µM (not active)

## c1ccc(CNc2ncnc3ccccc23)cc1
cells
  EC50: > 29.9 µM (inactive)
[5]
  AC50: 5.24 µM (active)
Galanin receptor type 3
  IC50: 1.25 µM (active)
[6]
  AC50: 15 µM (active)
[7]
  IC50: 9.32 µM (active)
[8]
  AC50: 4.91 µM (active)
[9]
  AC50: 18.9 µM (active)
[10]
  AC50: 3.66 µM (active)
[11]
  AC50: 10.7 µM (active)
[12]
  AC50: 1.5 µM (active)

## O=C(Nc1ccc2c(c1)OCCO2)c1ccccn1
[13]
  AC50: 19.9 µM (active)
HEK293 [14]
  AC50: 2.3 µM (active)
[15]
  AC50: 27.3 µM (active)
[16]
  AC50: 48.5 µM (active)
[17]
  AC50: 3.29 µM (active)
[18]
  AC50: 2.75 µM (active)

## O=C(CSc1c2c(nc3ccc(Cl)cc13)CCCC2)NCc1ccco1
Protein skinhead-1
  IC50: > 100 µM (inactive)
[19]
  AC50: 44.7 µM (active)
[20]
  AC50: 8.55 µM (active)
[9]
  AC50: 31.2 µM (active)
Vero
  CC50: > 25 µM (active)
[12]
  AC50: 5.71 µM (active)

## O=C(Nc1ccccc1)N1CCCCN2[C@H](C1)[C@H](c1ccc(C#CC3CC3)cc1)[C@@H]2CO
[21]
  AC50: 40.1 µM (active)
HEK293 [22]
  AC50: 40.1 µM (active)
